Data: the CheMixHub viscosity set

Experiment: xn = mol fraction of the nth substance listed

NC(N)=O + O
Conditions | viscosity [mPa·s]
293.15 K, 100 kPa, x1 = 0.00045 | 1.018
293.15 K, 100 kPa, x1 = 0.0009 | 1.027
293.15 K, 100 kPa, x1 = 0.0013 | 1.041
293.15 K, 101 kPa, x1 = 0.0003382 | 1.002
293.15 K, 101 kPa, x1 = 0.0005695 | 1.003
293.15 K, 101 kPa, x1 = 0.0009893 | 1.003
293.15 K, 101 kPa, x1 = 0.001265 | 1.004
293.15 K, 101 kPa, x1 = 0.00161 | 1.004
293.15 K, 101 kPa, x1 = 0.002015 | 1.005
293.15 K, 101 kPa, x1 = 0.002546 | 1.006
293.15 K, 101 kPa, x1 = 0.002806 | 1.006
293.15 K, 101 kPa, x1 = 0.0486 | 0.872
293.15 K, 101 kPa, x1 = 0.0994 | 0.991
293.15 K, 101 kPa, x1 = 0.1318 | 1.087
294.75 K, 101 kPa, x1 = 0.0219 | 0.9356
294.75 K, 101 kPa, x1 = 0.04201 | 1.072
294.75 K, 101 kPa, x1 = 0.05343 | 1.101
294.75 K, 101 kPa, x1 = 0.0565 | 1.157
298.15 K, 100 kPa, x1 = 0.00045 | 0.911
298.15 K, 100 kPa, x1 = 0.0009 | 0.927
298.15 K, 100 kPa, x1 = 0.0013 | 0.94
298.15 K, 101 kPa, x1 = 0.0003802 | 0.8909
298.15 K, 101 kPa, x1 = 0.0009168 | 0.8918
298.15 K, 101 kPa, x1 = 0.001355 | 0.8925
298.15 K, 101 kPa, x1 = 0.00169 | 0.893
298.15 K, 101 kPa, x1 = 0.001993 | 0.8935
298.15 K, 101 kPa, x1 = 0.00247 | 0.8943
298.15 K, 101 kPa, x1 = 0.00308 | 0.895
298.15 K, 101 kPa, x1 = 0.003109 | 0.8953
298.15 K, 101 kPa, x1 = 0.00368 | 0.8962
298.15 K, 101 kPa, x1 = 0.0259 | 0.939
298.15 K, 101 kPa, x1 = 0.0389 | 0.969
298.15 K, 101 kPa, x1 = 0.05204 | 1.035
298.15 K, 101 kPa, x1 = 0.08275 | 1.088
298.15 K, 101 kPa, x1 = 0.1302 | 1.252
298.15 K, 101 kPa, x1 = 0.156 | 1.348
298.15 K, 101 kPa, x1 = 0.2047 | 1.561
303.15 K, 100 kPa, x1 = 0.00045 | 0.824
303.15 K, 100 kPa, x1 = 0.0009 | 0.839
303.15 K, 100 kPa, x1 = 0.0013 | 0.849
303.15 K, 101 kPa, x1 = 0.000464 | 0.798
303.15 K, 101 kPa, x1 = 0.001107 | 0.799
303.15 K, 101 kPa, x1 = 0.001607 | 0.7999
303.15 K, 101 kPa, x1 = 0.002024 | 0.8005
303.15 K, 101 kPa, x1 = 0.002271 | 0.8009
303.15 K, 101 kPa, x1 = 0.002742 | 0.8016
303.15 K, 101 kPa, x1 = 0.003158 | 0.8024
303.15 K, 101 kPa, x1 = 0.003416 | 0.8028
308.15 K, 100 kPa, x1 = 0.00045 | 0.744
308.15 K, 100 kPa, x1 = 0.0009 | 0.755
308.15 K, 100 kPa, x1 = 0.0013 | 0.77
308.15 K, 101 kPa, x1 = 0.0003775 | 0.7197
308.15 K, 101 kPa, x1 = 0.0006463 | 0.7201
308.15 K, 101 kPa, x1 = 0.001149 | 0.721
308.15 K, 101 kPa, x1 = 0.001425 | 0.7214
308.15 K, 101 kPa, x1 = 0.001907 | 0.7223
308.15 K, 101 kPa, x1 = 0.002218 | 0.7227
308.15 K, 101 kPa, x1 = 0.002872 | 0.7238
308.15 K, 101 kPa, x1 = 0.003309 | 0.7246
308.15 K, 101 kPa, x1 = 0.018 | 0.65
308.15 K, 101.33 kPa, x1 = 0.0177 | 0.7612
308.15 K, 101.33 kPa, x1 = 0.03479 | 0.7944
308.15 K, 101.33 kPa, x1 = 0.05127 | 0.8302
308.15 K, 101.33 kPa, x1 = 0.06723 | 0.8754
308.15 K, 101.33 kPa, x1 = 0.08263 | 0.916
308.15 K, 101.33 kPa, x1 = 0.09755 | 0.9544
308.15 K, 101.33 kPa, x1 = 0.112 | 1.02
308.15 K, 101.33 kPa, x1 = 0.126 | 1.049
308.15 K, 101.33 kPa, x1 = 0.1395 | 1.077
313.15 K, 100 kPa, x1 = 0.00045 | 0.678
313.15 K, 100 kPa, x1 = 0.0009 | 0.692
313.15 K, 100 kPa, x1 = 0.0013 | 0.712
313.15 K, 101.33 kPa, x1 = 0.0177 | 0.6912
313.15 K, 101.33 kPa, x1 = 0.03479 | 0.7169
313.15 K, 101.33 kPa, x1 = 0.05127 | 0.7568
313.15 K, 101.33 kPa, x1 = 0.06723 | 0.7895
313.15 K, 101.33 kPa, x1 = 0.08263 | 0.8365
313.15 K, 101.33 kPa, x1 = 0.09755 | 0.8702
313.15 K, 101.33 kPa, x1 = 0.112 | 0.914
313.15 K, 101.33 kPa, x1 = 0.126 | 0.9479
313.15 K, 101.33 kPa, x1 = 0.1395 | 0.9819
318.15 K, 101 kPa, x1 = 0.018 | 0.533
318.15 K, 101.33 kPa, x1 = 0.0177 | 0.6293
318.15 K, 101.33 kPa, x1 = 0.03479 | 0.6557
318.15 K, 101.33 kPa, x1 = 0.05127 | 0.6939
318.15 K, 101.33 kPa, x1 = 0.06723 | 0.7263
318.15 K, 101.33 kPa, x1 = 0.08263 | 0.7712
318.15 K, 101.33 kPa, x1 = 0.09755 | 0.7978
318.15 K, 101.33 kPa, x1 = 0.112 | 0.8423
318.15 K, 101.33 kPa, x1 = 0.126 | 0.8735
318.15 K, 101.33 kPa, x1 = 0.1395 | 0.9047
323.15 K, 101.33 kPa, x1 = 0.0177 | 0.5841
323.15 K, 101.33 kPa, x1 = 0.03479 | 0.6023
323.15 K, 101.33 kPa, x1 = 0.05127 | 0.6485
323.15 K, 101.33 kPa, x1 = 0.06723 | 0.6694
323.15 K, 101.33 kPa, x1 = 0.08263 | 0.7012
323.15 K, 101.33 kPa, x1 = 0.09755 | 0.7261
323.15 K, 101.33 kPa, x1 = 0.112 | 0.7788
323.15 K, 101.33 kPa, x1 = 0.126 | 0.803
323.15 K, 101.33 kPa, x1 = 0.1395 | 0.8273
